Data from US8192962B2, “Processes for detecting toxic substances” (Daikin Industries, Ltd., priority 2001, dated 2012).

Test system: Genes belonging to other category
Test: DNA chip mRNA expression in yeast, genes belonging to other category (Table 9)
Type: cell-based, Saccharomyces cerevisiae S288C
Method in brief: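 S. cerevisiae S288C grown at 25° C. in YPD to log phase, then exposed 2 h to a toxicant at a growth-inhibiting, non-lethal concentration; untreated cells as control. Poly(A) mRNA reverse-transcribed with Cy3-dUTP or Cy5-dUTP, hybridized >12 h at 65° C. to whole-genome yeast DNA chip; value = fluorescence ratio treated/untreated.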

S=C([S-])NCCNC(=S)[S-].[Zn+2] [(11), zinc N,N′-ethylenebis(dithiocarbamate)]
The level of expressed mRNA in the presence of chemical substance/The level of expressed mRNA in the absence of chemical substance (yeast gene YJL141C): 1.2 | The level of expressed mRNA in the presence of chemical substance/The level of expressed mRNA in the absence of chemical substance (yeast gene YJR004C): 0.7 | The level of expressed mRNA in the presence of chemical substance/The level of expressed mRNA in the absence of chemical substance (yeast gene YJR058C): 1.2 | The level of expressed mRNA in the presence of chemical substance/The level of expressed mRNA in the absence of chemical substance (yeast gene YJR069C): 0.9 | The level of expressed mRNA in the presence of chemical substance/The level of expressed mRNA in the absence of chemical substance (yeast gene YJR086W): 1.0 | The level of expressed mRNA in the presence of chemical substance/The level of expressed mRNA in the absence of chemical substance (yeast gene YKL008C): 1.5 | The level of expressed mRNA in the presence of chemical substance/The level of expressed mRNA in the absence of chemical substance (yeast gene YKL013C): 1.1 | The level of expressed mRNA in the presence of chemical substance/The level of expressed mRNA in the absence of chemical substance (yeast gene YKL039W): 1.0 | The level of expressed mRNA in the presence of chemical substance/The level of expressed mRNA in the absence of chemical substance (yeast gene YKL041W): 1.2 | The level of expressed mRNA in the presence of chemical substance/The level of expressed mRNA in the absence of chemical substance (yeast gene YKL079W): 1.3 | The level of expressed mRNA in the presence of chemical substance/The level of expressed mRNA in the absence of chemical substance (yeast gene YKL096W): 3.5 | The level of expressed mRNA in the presence of chemical substance/The level of expressed mRNA in the absence of chemical substance (yeast gene YKL097W-A): 1.6 | The level of expressed mRNA in the presence of chemical substance/The level of expressed mRNA in the absence of chemical substance (yeast gene YKL139W): 1.4 | The level of expressed mRNA in the presence of chemical substance/The level of expressed mRNA in the absence of chemical substance (yeast gene YKL165C): 0.3 | The level of expressed mRNA in the presence of chemical substance/The level of expressed mRNA in the absence of chemical substance (yeast gene YKL193C): 1.7 | The level of expressed mRNA in the presence of chemical substance/The level of expressed mRNA in the absence of chemical substance (yeast gene YKL198C): 1.4 | The level of expressed mRNA in the presence of chemical substance/The level of expressed mRNA in the absence of chemical substance (yeast gene YKR014C): 1.1 | The level of expressed mRNA in the presence of chemical substance/The level of expressed mRNA in the absence of chemical substance (yeast gene YLR093C): 1.0 | The level of expressed mRNA in the presence of chemical substance/The level of expressed mRNA in the absence of chemical substance (yeast gene YLR110C): 3.2 | The level of expressed mRNA in the presence of chemical substance/The level of expressed mRNA in the absence of chemical substance (yeast gene YLR118C): 1.2 | The level of expressed mRNA in the presence of chemical substance/The level of expressed mRNA in the absence of chemical substance (yeast gene YLR120C): 1.2 | The level of expressed mRNA in the presence of chemical substance/The level of expressed mRNA in the absence of chemical substance (yeast gene YLR136C): 1.2 | The level of expressed mRNA in the presence of chemical substance/The level of expressed mRNA in the absence of chemical substance (yeast gene YLR178C): 3.7 | The level of expressed mRNA in the presence of chemical substance/The level of expressed mRNA in the absence of chemical substance (yeast gene YLR250W): 1.4 | The level of expressed mRNA in the presence of chemical substance/The level of expressed mRNA in the absence of chemical substance (yeast gene YLR251W): 4.1 | The level of expressed mRNA in the presence of chemical substance/The level of expressed mRNA in the absence of chemical substance (yeast gene YLR327C): 5.0 | The level of expressed mRNA in the presence of chemical substance/The level of expressed mRNA in the absence of chemical substance (yeast gene YLR340W): 1.4 | The level of expressed mRNA in the presence of chemical substance/The level of expressed mRNA in the absence of chemical substance (yeast gene YLR356W): 3.1 | The level of expressed mRNA in the presence of chemical substance/The level of expressed mRNA in the absence of chemical substance (yeast gene YLR360W): 0.9 | The level of expressed mRNA in the presence of chemical substance/The level of expressed mRNA in the absence of chemical substance (yeast gene YLR362W): 1.5 | The level of expressed mRNA in the presence of chemical substance/The level of expressed mRNA in the absence of chemical substance (yeast gene YLR391W): 1.4 | The level of expressed mRNA in the presence of chemical substance/The level of expressed mRNA in the absence of chemical substance (yeast gene YLR429W): 0.9 | The level of expressed mRNA in the presence of chemical substance/The level of expressed mRNA in the absence of chemical substance (yeast gene YML055W): 1.4 | The level of expressed mRNA in the presence of chemical substance/The level of expressed mRNA in the absence of chemical substance (yeast gene YMR004W): 2.5 | The level of expressed mRNA in the presence of chemical substance/The level of expressed mRNA in the absence of chemical substance (yeast gene YMR091C): 0.9 | The level of expressed mRNA in the presence of chemical substance/The level of expressed mRNA in the absence of chemical substance (yeast gene YMR092C): 1.2 | The level of expressed mRNA in the presence of chemical substance/The level of expressed mRNA in the absence of chemical substance (yeast gene YMR094W): 1.0 | The level of expressed mRNA in the presence of chemical substance/The level of expressed mRNA in the absence of chemical substance (yeast gene YMR104C): 1.1 | The level of expressed mRNA in the presence of chemical substance/The level of expressed mRNA in the absence of chemical substance (yeast gene YMR112C): 0.9 | The level of expressed mRNA in the presence of chemical substance/The level of expressed mRNA in the absence of chemical substance (yeast gene YMR214W): 0.7 | The level of expressed mRNA in the presence of chemical substance/The level of expressed mRNA in the absence of chemical substance (yeast gene YMR219W): 1.5 | The level of expressed mRNA in the presence of chemical substance/The level of expressed mRNA in the absence of chemical substance (yeast gene YMR226C): 1.4 | The level of expressed mRNA in the presence of chemical substance/The level of expressed mRNA in the absence of chemical substance (yeast gene YMR238W): 1.2 | The level of expressed mRNA in the presence of chemical substance/The level of expressed mRNA in the absence of chemical substance (yeast gene YMR255W): 1.2 | The level of expressed mRNA in the presence of chemical substance/The level of expressed mRNA in the absence of chemical substance (yeast gene YMR275C): 1.1 | The level of expressed mRNA in the presence of chemical substance/The level of expressed mRNA in the absence of chemical substance (yeast gene YMR276W): 1.9 | The level of expressed mRNA in the presence of chemical substance/The level of expressed mRNA in the absence of chemical substance (yeast gene YMR314W): 1.8 | The level of expressed mRNA in the presence of chemical substance/The level of expressed mRNA in the absence of chemical substance (yeast gene YNL006W): 1.1 | The level of expressed mRNA in the presence of chemical substance/The level of expressed mRNA in the absence of chemical substance (yeast gene YNL007C): 1.3 | The level of expressed mRNA in the presence of chemical substance/The level of expressed mRNA in the absence of chemical substance (yeast gene YNL039W): 0.4
